Experimental data reported in PubChem BioAssay AID248 (DTP/NCI, 2004).
Values joined by “and” are separate entries in the source; they are usually repeats but may differ in a detail not shown here. Equal entries are not always repeated. Toxic doses and inconclusive results are not listed. No stated cut-off is given here; in the data, active means T/C of 150% or more; inactive means T/C below 125%.

Test system: L1210 leukemia ip in BDF1 mice, survival T/C
Assay: NCI In Vivo Anticancer Drug Screen. Data for tumor model L1210 Leukemia (intraperitoneal) in B6D2F1 (BDF1) mice
Details: endpoint: mean survival time, higher = longer survival
Method in brief: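 In this screen, tumor-bearing mice given compound are compared to those given vehicle, and their survival values are reported as a treated-to-control quotient.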

[1] = dose: 100.0 mg/kg/injection, schedule: Q04DX003 (ip), vehicle: saline with Tween-80
[2] = dose: 200.0 mg/kg/injection, schedule: Q04DX003 (ip), vehicle: saline with Tween-80
[3] = dose: 400.0 mg/kg/injection, schedule: Q04DX003 (ip), vehicle: saline with Tween-80
[4] = dose: 25.0 mg/kg/injection, schedule: Q01DX009 (ip), vehicle: saline
[5] = dose: 100.0 mg/kg/injection, schedule: Q01DX009 (ip), vehicle: saline
[6] = dose: 100.0 mg/kg/injection, schedule: Q04DX002 (ip), vehicle: Klucel (hydroxypropylcellulose) (HPC)
[7] = dose: 200.0 mg/kg/injection, schedule: Q04DX002 (ip), vehicle: Klucel (hydroxypropylcellulose) (HPC)
[8] = dose: 400.0 mg/kg/injection, schedule: Q04DX002 (ip), vehicle: Klucel (hydroxypropylcellulose) (HPC)
[9] = dose: 100.0 mg/kg/injection, schedule: Q04DX002 (ip), vehicle: saline with Tween-80
[10] = dose: 100.0 mg/kg/injection, schedule: Q01DX009 (ip), vehicle: saline with Tween-80
[11] = dose: 200.0 mg/kg/injection, schedule: Q01DX009 (ip), vehicle: saline with Tween-80
[12] = dose: 400.0 mg/kg/injection, schedule: Q01DX009 (ip), vehicle: saline with Tween-80
[13] = dose: 100.0 mg/kg/injection, schedule: Q01DX001 (ip), vehicle: saline
[14] = dose: 200.0 mg/kg/injection, schedule: Q01DX001 (ip), vehicle: saline
[15] = dose: 400.0 mg/kg/injection, schedule: Q01DX001 (ip), vehicle: saline

Measured: T/C

O=C1CCc2ccccc2C(=O)C1c1ccc(Cl)cc1 (stereo not drawn)
inactive: [1] 90 % of control | [2] 97 % of control | [3] 93 % of control

O=C(O)/C=C\Cl
inactive: [4] 104 % of control | dose: 50.0 mg/kg/injection, schedule: Q01DX009 (ip), vehicle: saline 98 % of control | [5] 96 % of control | dose: 100.0 mg/kg/injection, schedule: Q04DX002 (ip), vehicle: saline 100 % of control and 94 % of control | dose: 200.0 mg/kg/injection, schedule: Q04DX002 (ip), vehicle: saline 93 % of control and 105 % of control | dose: 400.0 mg/kg/injection, schedule: Q04DX002 (ip), vehicle: saline 102 % of control

OC(CC(O)(c1ccccc1)c1ccccc1)(c1ccccc1)c1ccccc1
inactive: dose: 9.5 mg/kg/injection, schedule: Q01DX001 (ip), vehicle: other 93 % of control | dose: 19.0 mg/kg/injection, schedule: Q01DX001 (ip), vehicle: other 96 % of control | dose: 38.0 mg/kg/injection, schedule: Q01DX001 (ip), vehicle: other 93 % of control

Cc1cc(C)c(S(N)(=O)=O)c(C)c1
inactive: dose: 50.0 mg/kg/injection, schedule: Q04DX002 (ip), vehicle: Klucel (hydroxypropylcellulose) (HPC) 94 % of control | [6] 107 % of control | [7] 94 % of control

CCCCCC(=O)N1CC(C)OC(C)C1 (stereo not drawn)
inactive: [6] 94 % of control | [7] 97 % of control | [8] 87 % of control

CCC(CC)(C1CCC(O)CC1)C1CCC(O)CC1 (stereo not drawn)
inactive: dose: 75.0 mg/kg/injection, schedule: Q01DX001 (ip), vehicle: carboxymethylcellulose (CMC) 93 % of control | dose: 150.0 mg/kg/injection, schedule: Q01DX001 (ip), vehicle: carboxymethylcellulose (CMC) 91 % of control | dose: 300.0 mg/kg/injection, schedule: Q01DX001 (ip), vehicle: carboxymethylcellulose (CMC) 89 % of control

ClCC(Cl)C1CCC(Cl)C(Cl)C1 (stereo not drawn)
inactive: dose: 50.0 mg/kg/injection, schedule: Q01DX009 (ip), vehicle: other 95 % of control | dose: 100.0 mg/kg/injection, schedule: Q01DX009 (ip), vehicle: other 90 % of control | dose: 200.0 mg/kg/injection, schedule: Q01DX009 (ip), vehicle: other 90 % of control

CC1=C(C#N)C(C)(C)c2ccccc21
inactive: [9] 110 % of control | dose: 200.0 mg/kg/injection, schedule: Q04DX002 (ip), vehicle: saline with Tween-80 100 % of control | dose: 400.0 mg/kg/injection, schedule: Q04DX002 (ip), vehicle: saline with Tween-80 100 % of control

CCNC(C)(C)C(SSSC(c1ccc(C(F)(F)F)cc1)C(C)(C)NCC)c1ccc(C(F)(F)F)cc1 (stereo not drawn)
inactive: dose: 6.25 mg/kg/injection, schedule: Q01DX009 (ip), vehicle: saline 91 % of control | dose: 12.5 mg/kg/injection, schedule: Q01DX009 (ip), vehicle: saline 96 % of control | [4] 95 % of control

C(=C1c2ccccc2-c2ccccc21)c1ccccc1
inactive: [10] 100 % of control | [1] 100 % of control | [11] 95 % of control | [2] 100 % of control | [12] 91 % of control | [3] 92 % of control

Cc1c(NC(=O)Nc2cc(C(F)(F)F)ccc2Cl)c(=O)n(-c2ccccc2)n1C
inactive: [6] 96 % of control | [7] 96 % of control | [8] 105 % of control

O=c1c(N2CCOCC2)c(N2CCOCC2)c1=O
inactive: [10] 100 % of control | [1] 104 % of control | [11] 100 % of control | [2] 103 % of control | [12] 100 % of control | [3] 95 % of control

CCOC(=O)C1=CCC(n2cc(F)c(=O)[nH]c2=O)O1 (stereo not drawn)
inactive: [1] 98 % of control | [2] 102 % of control | [3] 98 % of control

O=C(NC1CCCC2CCCCC21)OCCC1CCCCC1 (stereo not drawn)
inactive: [13] 95 % of control | [14] 103 % of control | [15] 95 % of control

COc1ccc2c(c1)CC(OC)c1cc3c(nc1-2)-c1ccccc1CC3 (stereo not drawn)
inactive: dose: 100.0 mg/kg/injection, schedule: Q01DX009 (ip), vehicle: Klucel (hydroxypropylcellulose) (HPC) 96 % of control | dose: 100.0 mg/kg/injection, schedule: Q04DX003 (ip), vehicle: Klucel (hydroxypropylcellulose) (HPC) 102 % of control | dose: 200.0 mg/kg/injection, schedule: Q01DX009 (ip), vehicle: Klucel (hydroxypropylcellulose) (HPC) 103 % of control | dose: 200.0 mg/kg/injection, schedule: Q04DX003 (ip), vehicle: Klucel (hydroxypropylcellulose) (HPC) 100 % of control | dose: 400.0 mg/kg/injection, schedule: Q01DX009 (ip), vehicle: Klucel (hydroxypropylcellulose) (HPC) 100 % of control | dose: 400.0 mg/kg/injection, schedule: Q04DX003 (ip), vehicle: Klucel (hydroxypropylcellulose) (HPC) 98 % of control

Oc1c(Cl)cc(Cl)cc1/C=N/N1CCN(/N=C/c2cc(Cl)cc(Cl)c2O)CC1
inactive: [13] 87 % of control | [14] 87 % of control

C=C(Br)CN(CC)CC
inactive: dose: 12.5 mg/kg/injection, schedule: Q01DX009 (ip), vehicle: Klucel (hydroxypropylcellulose) (HPC) 90 % of control | dose: 12.5 mg/kg/injection, schedule: Q04DX003 (ip), vehicle: Klucel (hydroxypropylcellulose) (HPC) 100 % of control | dose: 25.0 mg/kg/injection, schedule: Q01DX009 (ip), vehicle: Klucel (hydroxypropylcellulose) (HPC) 91 % of control | dose: 25.0 mg/kg/injection, schedule: Q04DX003 (ip), vehicle: Klucel (hydroxypropylcellulose) (HPC) 107 % of control | dose: 50.0 mg/kg/injection, schedule: Q04DX003 (ip), vehicle: Klucel (hydroxypropylcellulose) (HPC) 96 % of control

N#Cc1ccc(C(=O)C=C(C(F)(F)F)C(F)(F)F)cc1
inactive: dose: 6.25 mg/kg/injection, schedule: Q01DX009 (ip), vehicle: other 95 % of control | dose: 12.5 mg/kg/injection, schedule: Q01DX009 (ip), vehicle: other 98 % of control

CC(C)C1(C(C)C)S(=O)(=O)CCS1(=O)=O
inactive: [13] 98 % of control | [14] 93 % of control | [15] 102 % of control

O=C(Cn1ccc(=O)[nH]c1=O)N1CCC2(CC1)SSC1(CCN(C(=O)Cn3ccc(=O)[nH]c3=O)CC1)S2
inactive: [5] 106 % of control | dose: 100.0 mg/kg/injection, schedule: Q04DX003 (ip), vehicle: saline 97 % of control | dose: 200.0 mg/kg/injection, schedule: Q01DX009 (ip), vehicle: saline 98 % of control | dose: 200.0 mg/kg/injection, schedule: Q04DX003 (ip), vehicle: saline 95 % of control | dose: 400.0 mg/kg/injection, schedule: Q01DX009 (ip), vehicle: saline 93 % of control | dose: 400.0 mg/kg/injection, schedule: Q04DX003 (ip), vehicle: saline 92 % of control

Cc1ccc2c(c1)NP(=O)(c1ccccc1)S2 (stereo not drawn)
inactive: dose: 25.0 mg/kg/injection, schedule: Q04DX002 (ip), vehicle: saline with Tween-80 89 % of control | dose: 50.0 mg/kg/injection, schedule: Q04DX002 (ip), vehicle: saline with Tween-80 92 % of control | [9] 102 % of control and 89 % of control

COc1ccc(Nc2ccnc3cc(Cl)ccc23)cc1CN(CCCl)C(C)CCl (stereo not drawn)
inactive: dose: 25.0 mg/kg/injection, schedule: Q01DX001 (ip), vehicle: carboxymethylcellulose (CMC) 113 % of control | dose: 50.0 mg/kg/injection, schedule: Q01DX001 (ip), vehicle: carboxymethylcellulose (CMC) 107 % of control | dose: 100.0 mg/kg/injection, schedule: Q01DX001 (ip), vehicle: carboxymethylcellulose (CMC) 103 % of control

CC1(C)NC(=S)NC1=S
inactive: dose: 100.0 mg/kg/injection, schedule: Q01DX009 (ip), vehicle: alcohol 103 % of control | [6] 89 % of control | dose: 200.0 mg/kg/injection, schedule: Q01DX009 (ip), vehicle: alcohol 101 % of control | [7] 89 % of control | [8] 96 % of control

CCCCCCN(CCCCCC)C(C)=O
inactive: dose: 50.0 mg/kg/injection, schedule: Q04DX003 (ip), vehicle: other 103 % of control | dose: 100.0 mg/kg/injection, schedule: Q01DX001 (ip), vehicle: other 96 % of control | dose: 100.0 mg/kg/injection, schedule: Q04DX003 (ip), vehicle: other 98 % of control | dose: 200.0 mg/kg/injection, schedule: Q01DX001 (ip), vehicle: other 96 % of control | dose: 200.0 mg/kg/injection, schedule: Q04DX003 (ip), vehicle: other 93 % of control

CNc1nc(SC)ncc1C
inactive: dose: 25.0 mg/kg/injection, schedule: Q01DX Z (ip), vehicle: methylcellulose (MC) 92 % of control | dose: 50.0 mg/kg/injection, schedule: Q01DX Z (ip), vehicle: methylcellulose (MC) 89 % of control
